In one assay the test system is RAW 264.7 cells. The experiment in a line: Multinucleated (OCL) cell count in RAW 264.7 cell cultures ± RANKL. In kind it is cell-based, Murine. The protocol: (iii) RAW 264.7 Cells • Murine macrophage RAW 264.7 cells respond to Receptor Activator NFKB Ligand (RANKL) stimulation to generate bone pit resorptive osteoclasts. • RAW cells were pre-cultured for several days in High-Glucose Dulbecco's Modified Eagles Medium (HG-DMEM) with 10% Fetal Calf Serum […] (0-50 μg/mL). • Cells were incubated at 37° C., 5% CO2 for 4 days. • The number of multinucleated cells present in each was counted by two observers at day 2, 3 and 4. The cells were then harvested for RNA extraction and subsequent RT-PCR.
(iv) H&E Staining • Identical cultures were prepared in petri dishes containing pre-labelled slides and incubated for 4 days, after which slides were carefully rinsed in PBS, immersed in ice-cold acetone and air-dried before freezing. • The slides were then stained with H&E before multinucleated osteoclasts were photographed and counted.

The test system of assay [1] is Cathepsin K gene expression. Put plainly: Cathepsin K gene expression by RAW 264.7 cells ± RANKL (RT-PCR). In kind it is cell-based, Murine. The protocol: (§1) (iii) RAW 264.7 Cells • Murine macrophage RAW 264.7 cells respond to Receptor Activator NFKB Ligand (RANKL) stimulation to generate bone pit resorptive osteoclasts. • RAW cells were pre-cultured for several days in High-Glucose Dulbecco's Modified Eagles Medium (HG-DMEM) with 10% Fetal Calf Serum (FCS). • Cells were seeded at 250,000 cells/mL in HG-DMEM/10% FCS with/without […] RANKL and increasing doses of PPS (0-50 μg/mL). • Cells were incubated at 37° C., 5% CO2 for 4 days. • The number of multinucleated cells present in each was counted by two observers at day 2, 3 and 4. The cells were then harvested for RNA extraction and subsequent RT-PCR.

A further assay deals with T1, Cathepsin K (Homo sapiens, UniProt P43235).
T1 sequence (P43235 115-329): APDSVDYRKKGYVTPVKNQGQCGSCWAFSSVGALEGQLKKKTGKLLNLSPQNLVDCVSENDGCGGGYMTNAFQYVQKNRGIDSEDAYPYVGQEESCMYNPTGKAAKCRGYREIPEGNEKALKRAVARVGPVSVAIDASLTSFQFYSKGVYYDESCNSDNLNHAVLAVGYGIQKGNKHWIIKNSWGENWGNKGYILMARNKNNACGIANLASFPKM
Put plainly: Cathepsin K bone collagen digests (release of bone collagen, hydroxyproline). Conditions: overall conclusion; Cathepsin K mediated release of bone collagen (FIG. 1). Type of assay: biochemical. How it is done:
Fresh ovine bone was milled in a stainless steel mortar and pestle in liquid nitrogen. The resultant bone powder was defatted, decalcified and freeze-dried before storage at 4° C.
(ii) Cathepsin K Bone Collagen Digests • 2 mg of insoluble bone collagen powder was digested in 100 mM sodium acetate pH 5.5 containing 2.5 mM dithiothreitol and 2.5 mM EDTA with […] Cathepsin K and increasing doses of PPS. • Digestions were incubated at 37° C. for 24 hours and terminated by the addition of 2 μM E84. Residue and supernatant were hydrolysed separately and the hydroxyproline content measured.

In the next assay the test system is MMP-9 gene expression. Put plainly: MMP9 gene expression by RAW 264.7 cells ± RANKL (RT-PCR). In kind it is cell-based, Murine. How it is done: as §1

Results on two molecules are retold here after patent US20130102562A1, “INHIBITION OF CATHEPSIN K ACTIVITY AND THE TREATMENT AND PREVENTION OF DISEASE” (SYLVAN PHARMACEUTICALS PTY LTD., priority 2006, published 2013).

For “calcium xylopyranose polysulfate [CaXPS]”, the “RANKL-induced multinucleated OCL cell formation” value with RAW 264.7 cells (day 4, 0.5 μg/mL CaXPS vs absence of CaXPS, p<0.05 (FIG. 4B)) is “significantly more”. Further, the “RANKL-induced formation of true multinucleated (>4 nuclei/cell) OCL cells” value in the assay with RAW 264.7 cells (day 4, 10 μg/mL CaXPS (FIG. 4B)) is given as “inhibited”; in the assay on RAW 264.7 cells (day 4, 50 μg/mL CaXPS (FIG. 4B)), “inhibited”. The “number of cells containing 2-3 nuclei as a percentage total cells” value in the assay on RAW 264.7 cells (day 4, 50 μg/mL CaXPS, in the presence of RANKL, p<0.05 (FIG. 4A)) was “significantly more 2-3 nucleated cells”; in the assay on RAW 264.7 cells (day 4, − vs + RANKL, at most concentrations of CaXPS (FIG. 4A)) it was “still significantly increased”. In assay [1] (day 4, increasing concentrations of CaXPS in the absence of RANKL (FIG. 5A)), the “Cathepsin K gene expression” value is on record as “no marked effect”. In addition, the “Cathepsin K expression” value in assay [1] (day 4, presence of RANKL, lowest dose of CaXPS, p<0.05 (FIG. 5A)) is “significant increase”. Besides, the “Cathepsin K activity” value on Cathepsin K is “down regulation”. Besides, the MMP-9 gene expression result with MMP-9 gene expression (day 4, increasing concentrations of CaXPS in the absence of RANKL (FIG. 5B)) is listed as “no marked effect”. The MMP-9 expression entry in the assay on MMP-9 gene expression (day 4, presence of RANKL, 5 μg/mL CaXPS, p<0.05 (FIG. 5B)) is “decrease”.

B1: RANKL: Receptor Activator NFKB Ligand; stimulates RAW 264.7 cells to generate bone pit resorptive osteoclasts (protein, UniProt O35235 139-316, looked up)
Tumor necrosis factor ligand …: FSGAPAMMEGSWLDVAQRGKPEAQPFAHLTINAASIPSGSHKVTLSSWYHDRGWAKISNMTLSNGKLRVNQDGFYYLYANICFRHHETSGSVPTDYLQLMVYVVKTSIKIPSSHNLMKGGSTKNWSGNSEFHFYSINVGGFFKLRAGEEISIQVSNPSLLDPDQDATYFGAFKVQDID
Consider B1, for which the “development of multinucleated cells” value with RAW 264.7 cells (RANKL 20 ng/mL added to RAW cells, by day 3, p<0.05 (FIGS. 2 and 3)) is on record as “significant development of multinucleated cells”. In addition, in assay [1] (RANKL alone vs no RANKL (FIG. 5A)), the “expression of Cathepsin K by RAW cells” value was “increased”. The “expression of MMP-9 by RAW cells” value in the assay with MMP-9 gene expression (RANKL alone vs no RANKL (FIG. 5B)) is given as “increased”.
